In the supplement of paper PMC10307832:

Legend:
Test in all cases: relative viability (nuclei count vs DMSO), 5 days (fraction); higher = more cells survive
KN-93 = compound: CN(C/C=C/C1=CC=C(C=C1)Cl)CC2=CC=CC=C2N(CCO)S(=O)(=O)C3=CC=C(C=C3)OC [KN-93]
Procedure, shortened: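 Viability was read as treated-well nuclei divided by vehicle-well nuclei, using the median across plates. Lung cancer cell lines in 1536-well plates were kept overnight at 37 °C, pinned with five √10-spaced library-drug doses, and after 5 days were Hoechst-stained, imaged at 4× and counted in MetaXpress. Plates passed only with control CV below 25% and at least one doubling.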

KN-93 + Linsitinib = compound: CN(C/C=C/C1=CC=C(C=C1)Cl)CC2=CC=CC=C2N(CCO)S(=O)(=O)C3=CC=C(C=C3)OC [KN-93] + C[C@]1(O)C[C@@H](c2nc(-c3ccc4ccc(-c5ccccc5)nc4c3)c3c(N)nccn32)C1 [Linsitinib] (partner 1 µM)
Procedure, shortened: (§1)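 Values are medians from duplicate plates. Each reflects relative viability, defined as the nuclei count of treated wells over that of vehicle wells. Lung cancer cell lines in 1536-well plates were pin-tool dosed one day after seeding with one drug alone or with a fixed anchor-drug dose plus five library-drug doses (not always all listed) in √10 steps, then fixed, stained and imaged at 4× after 5 days.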

KN-93 + Phenformin = compound: CN(C/C=C/C1=CC=C(C=C1)Cl)CC2=CC=CC=C2N(CCO)S(=O)(=O)C3=CC=C(C=C3)OC [KN-93] + N=C(N)NC(=N)NCCc1ccccc1 [Phenformin] (partner 250 µM)
Procedure, shortened: as §1

KN-93 + Crizotinib = compound: CN(C/C=C/C1=CC=C(C=C1)Cl)CC2=CC=CC=C2N(CCO)S(=O)(=O)C3=CC=C(C=C3)OC [KN-93] + C[C@@H](Oc1cc(-c2cnn(C3CCNCC3)c2)cnc1N)c1c(Cl)ccc(F)c1Cl [Crizotinib] (partner 1 µM)
Procedure, shortened: as §1

KN-93 + Foretinib = compound: CN(C/C=C/C1=CC=C(C=C1)Cl)CC2=CC=CC=C2N(CCO)S(=O)(=O)C3=CC=C(C=C3)OC [KN-93] + COc1cc2c(Oc3ccc(NC(=O)C4(C(=O)Nc5ccc(F)cc5)CC4)cc3F)ccnc2cc1OCCCN1CCOCC1 [Foretinib] (partner 0.25 µM)
Procedure, shortened: as §1

| Cell Line | relative viability (KN-93; 0.08 µM) | relative viability (KN-93; 0.253 µM) | relative viability (KN-93; 2.53 µM) | relative viability (KN-93; 8 µM) | relative viability (KN-93 + Linsitinib; first compound 0.08 µM) | relative viability (KN-93 + Linsitinib; first compound 0.253 µM) | relative viability (KN-93 + Linsitinib; first compound 2.53 µM) | relative viability (KN-93 + Linsitinib; first compound 8 µM) | relative viability (KN-93 + Phenformin; first compound 0.08 µM) | relative viability (KN-93 + Phenformin; first compound 0.253 µM) | relative viability (KN-93 + Phenformin; first compound 2.53 µM) | relative viability (KN-93 + Phenformin; first compound 8 µM) | relative viability (KN-93 + Crizotinib; first compound 0.08 µM) | relative viability (KN-93 + Crizotinib; first compound 0.253 µM) | relative viability (KN-93 + Crizotinib; first compound 2.53 µM) | relative viability (KN-93 + Crizotinib; first compound 8 µM) | relative viability (KN-93 + Foretinib; first compound 0.08 µM) | relative viability (KN-93 + Foretinib; first compound 0.253 µM) | relative viability (KN-93 + Foretinib; first compound 2.53 µM) | relative viability (KN-93 + Foretinib; first compound 8 µM) |
| --- | --- | --- | --- | --- | --- | --- | --- | --- | --- | --- | --- | --- | --- | --- | --- | --- | --- | --- | --- | --- |
| NCI-H23 | 0.997 | 1.18 | 1.02 | 0.56 | 0.522 | 0.617 | 0.659 | 0.53 | 0.705 | 0.889 | 0.88 | 0.609 | 0.446 | 0.54 | 0.574 | 0.534 | 0.935 | 1.13 | 1.1 | 0.666 |
| HARA | 0.871 | 0.943 | 0.827 | 0.565 | 0.84 | 1.11 | 0.923 | 0.527 | 0.329 | 0.477 | 0.543 | 0.148 | 1.04 | 1.51 | 0.946 | 0.51 | 0.918 | 1.37 | 0.887 | 0.532 |
| NCI-H3122 | 0.972 | 1.02 | 1.07 | 0.931 | 1.08 | 0.803 | 1.23 | 0.882 | 0.384 | 0.381 | 0.901 | 0.326 | 0.287 | 0.31 | 0.299 | 0.264 | 1.05 | 1.13 | 1.11 | 0.912 |
| HOP-62 | 1.06 | 1.07 | 1.17 | 0.733 | 0.938 | 1.15 | 1.12 | 0.982 | 0.525 | 0.835 | 0.849 | 0.741 | 0.936 | 1.09 | 1.15 | 0.952 | 1.2 | 1.22 | 1.26 | 0.958 |
| UMC-11 | 0.903 | 1.14 | 1.14 | 0.374 |  | 1.19 | 1.13 | 0.713 | 0.381 | 0.365 | 0.355 | 0.277 |  | 0.901 | 0.413 | 0.457 | 0.97 | 1.28 | 1.23 | 0.452 |
| NCI-H2023 | 0.906 | 1.01 | 1.08 | 0.534 | 0.613 | 0.669 | 0.657 | 0.532 | 0.365 | 0.466 | 0.496 | 0.247 | 0.795 | 0.855 | 0.745 | 0.439 | 0.935 |  | 0.981 | 0.627 |
| NCI-H1651 | 0.932 | 1.07 | 1.09 | 0.865 | 0.816 | 1.33 | 1.11 | 0.622 | 0.369 | 0.44 | 0.369 | 0.321 | 0.846 | 0.959 | 0.9 | 0.732 | 0.669 | 0.845 | 0.886 | 0.582 |
| LCLC-103H | 0.869 | 1.14 | 0.945 | 0.812 | 1.17 | 1.05 | 0.963 | 0.877 | 0.319 | 0.341 | 0.359 | 0.31 | 1.06 | 1.13 | 1.08 | 0.776 | 0.901 | 1.01 | 0.799 | 0.536 |
| COR-L 105 | 1.02 | 0.932 | 0.808 | 0.682 | 0.811 | 0.878 | 1.15 | 0.784 | 0.559 | 0.443 | 0.517 | 0.366 | 0.696 | 0.873 | 0.807 | 0.436 | 0.987 | 1.05 | 1.02 | 0.73 |
| NCI-H520 | 0.91 | 1.05 | 1.14 | 0.815 |  | 1.21 | 1.12 | 0.682 | 0.732 | 0.769 | 0.842 | 0.451 |  | 1.08 | 0.759 | 0.586 | 0.885 | 0.952 | 0.768 | 0.711 |
| NCI-H2347 | 1.03 | 1.11 | 1.08 | 0.797 | 1.07 | 0.922 | 0.918 | 0.797 | 0.517 | 0.376 | 0.55 | 0.362 | 0.686 | 0.731 | 0.739 | 0.463 | 1.12 | 0.656 | 1.25 | 0.593 |
